Data taken from paper PMC7822861, “A functional family of fluorescent nucleotide analogues to investigate actin dynamics and energetics” (Nature Communications, 2021).

Molecular target: T1, actin (G-actin, rabbit muscle) (Oryctolagus cuniculus, UniProt P68135)
T1 construct: gene ACTA1; rabbit muscle actin monomer; with mouse twinfilin C-terminal ADF-H domain (residues 176–316), in the crystal only
Assay: co-crystal structure ([…] Å); fluorescence anisotropy association/dissociation kinetics
Format: binding

k-: ~ (1 ± 0.4) × 10^−3 (k−) s^−1
Substance: ATP-ATTO-488
